From US12398255B2, “Biocompatible crosslinkers for controlled degradation of polymer hydrogels” (Saint Louis University, priority 2020, dated 2025)

Test: Hydrogel degradation measured by swelling
Format: physicochemical
Conditions: pH 7.4
Description: Additionally, degradation was followed by measuring QM as a function of time. MS was measured at specific time points until gels lacked physical integrity. QM was calculated for each time point and normalized to the QM of the non-swollen network at time zero (MG/MD). Initial mesh size (ξ) and crosslink density (vc) were calculated via the Flory-[…] theory.

PEG-dithiolpropionate [PEG-DD2]
Degradation Time: 8.0 ± 0.5 days
